Tested on: 439559-082-T-J2-PDC spheroid viability
Assay: Anticancer human tumor 439559-082-T-J2-PDC patient-derived colon adenocarcinoma cell line growth inhibition [POLQ]
Conditions: spheroids with HUVEC and MSC; for IC50: curve of first compound; for viability, T/C: stronger effect = lower value
Description: Multicellular complex tumor spheroid response to Polymerase (POL) inhibitors (novobiocin, ART-558, RP6685) in combination with a variety of drugs and investigational agents in selected tumor cell lines
The POL inhibitors (novobiocin, ART-558, and RP6685) were evaluated both individually and in combination with standard of care and investigational anticancer small molecules within a complex spheroid model of solid tumors. . Complex spheroids include a stromal component modeled by human endothelial cells (HUVEC) and fibroblasts modeled by human mesenchymal stem cells (MSCs). The concentration ranges selected for each drug and investigational agent were based upon clinically achievable concentrations if the clinical Cmax of the agent was known.
Compounds. The drugs and investigational agents: novobiocin (NSC847541), ART-558 (NSC835418), RP-6685 (NSC848927), peposertib (NSC802822), ceralasertib (NSC780249), elimusertib (NSC800525), camonsertib (NSC841442), AZD-1390 (NSC803789), olaparib (NSC753686), talazoparib (NSC767125), rucaparib (NSC756644), sotorasib (NSC818433), MRTX-1133 (NSC836407), SN-38 (NSC673596), topotecan (NSC609699), epotoside (NSC141540), doxorubicin (NSC123127), gemcitabine (NSC613327), 5-fluorouracil (NSC19893), paclitaxel (NSC125973), vemurafenib (NSC761431), MSA-2 (NSC828583), SN-011 (NSC837082), adavosertib (NSC754352), prexasertib (NSC758257), carboplatin (NSC241240) and oxaliplatin (NSC266046), were obtained from the National Cancer Institute (NCI) Developmental Therapeutics Program Chemical Repository (21). The FDA-approved anticancer drug set is available from the Developmental Therapeutics Program at https://dtp.cancer.gov/organization/dscb/obtaining/. […] The stock solutions were prepared in dimethyl sulfoxide (DMSO, Sigma-Aldrich, St. Louis, MO, cat. D2650), except for the platinum compounds which were prepared in saline (Quality Biological, Gaithersburg, MD, cat. 114-055-101), at 800-fold the tested concentration and stored at -70 degrees C prior to their use. All drugs and investigational agents were tested over a range starting from a high concentration at or near the clinical Cmax and decreasing in half-log increments. If the clinical Cmax for an agent had not been determined, the highest concentration tested was 10 microM, except for SN-38, which was tested at a high concentration of 1 microM.
Cell Culture. All cells were maintained in an incubator at 37 degrees C and 5% CO2 with 95% humidity. The PDC lines were cultured according to standard operating procedures established by the NCI PDMR (https://pdmr.cancer.gov). Table 3 of the manuscript, lists the cell lines along with the number of the three cell types plated to form the mct-spheroids and media for tumor cell growth. After thawing, all PDC lines, except 997537-175-T-J1-PDC and 415267-285-R-J2-PDC, were cultured in Matrigel-coated flasks prepared with a working solution of 1X Ham's F-12 nutrient mix, without supplementation (Thermo Fisher Scientific, cat. 11765054), 100 U/mL penicillin-streptomycin (Thermo Fisher Scientific, cat. 15140122), and 2.5% Matrigel (Corning Inc., Corning, NY, cat. 354248) for the first three passages. The two PDC lines 997537-175-T-J1-PDC and 415267-285-R-J2-PDC were cultured on uncoated flasks. The 857933-349-R-J2-PDC line was cultured in 6C/Colon 1B media containing advanced DMEM/F-12 (Thermo Fisher Scientific, cat. 12634028), 10 mM HEPES (Thermo Fisher Scientific, cat. 15630080), 1X GlutaMAX supplement (Thermo Fisher Scientific, cat. 35050061), 0.1 mg/mL primocin (InvivoGen, San Diego, CA, cat. ant-pm-2), 10% defined fetal bovine serum, heat inactivated (HyClone Laboratories Inc., Logan, UT, cat. SH30070.03HI), 50% L-WRN conditioned media (ATCC, cat. CRL-3276), 1.25 mM N-Acetyl-L-cysteine (Sigma-Aldrich, cat. A9165), 10 mM nicotinamide (Sigma-Aldrich, cat. N0636), 1X B-27 supplement (Thermo Fisher Scientific, cat. 17504044), 1X N-2 supplement (Thermo Fisher Scientific, cat. […]

[1] = second compound 0.0316 µM, first compound 0.0316 µM
[2] = second compound 0.0316 µM, first compound 0.1 µM
[3] = second compound 0.0316 µM, first compound 0.316 µM
[4] = second compound 0.0316 µM, first compound 1 µM
[5] = second compound 0.0316 µM, first compound 3.16 µM
[6] = second compound 0.0316 µM, first compound 10 µM
[7] = second compound 0.1 µM, first compound 0.0316 µM
[8] = second compound 0.1 µM, first compound 0.1 µM
[9] = second compound 0.1 µM, first compound 0.316 µM
[10] = second compound 0.1 µM, first compound 1 µM
[11] = second compound 0.1 µM, first compound 3.16 µM
[12] = second compound 0.1 µM, first compound 10 µM
[13] = second compound 0.316 µM, first compound 0.0316 µM
[14] = second compound 0.316 µM, first compound 0.1 µM
[15] = second compound 0.316 µM, first compound 0.316 µM
[16] = second compound 0.316 µM, first compound 1 µM
[17] = second compound 0.316 µM, first compound 3.16 µM
[18] = second compound 0.316 µM, first compound 10 µM
[19] = second compound 1 µM, first compound 0.0316 µM
[20] = second compound 1 µM, first compound 0.1 µM
[21] = second compound 1 µM, first compound 0.316 µM
[22] = second compound 1 µM, first compound 1 µM
[23] = second compound 1 µM, first compound 3.16 µM
[24] = second compound 1 µM, first compound 10 µM
[25] = second compound 3.16 µM, first compound 0.0316 µM
[26] = second compound 3.16 µM, first compound 0.1 µM
[27] = second compound 3.16 µM, first compound 0.316 µM
[28] = second compound 3.16 µM, first compound 1 µM
[29] = second compound 3.16 µM, first compound 3.16 µM
[30] = second compound 3.16 µM, first compound 10 µM
[31] = second compound 10 µM, first compound 0.0316 µM
[32] = second compound 10 µM, first compound 0.1 µM
[33] = second compound 10 µM, first compound 0.316 µM
[34] = second compound 10 µM, first compound 1 µM
[35] = second compound 10 µM, first compound 3.16 µM
[36] = second compound 10 µM, first compound 10 µM
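Further: spheroids exposed to compounds for seven days before readout.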
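Wherever viability, T/C is given: 100% = DMSO vehicle control viability.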

Q: `CC1COCCN1c1cc(C2(S(C)(=N)=O)CC2)nc(-c2ccnc3[nH]ccc23)n1` (centres undefined) + Nc1ccc(C#CCN(C(=O)Cc2ncc(C(F)(F)F)cc2C(F)(F)F)c2ccc(F)cc2)nn1 was tested. Which IC50 (second compound 0.0316 µM) did it give?
A: > 10000 nM

Q: What about the IC50 (second compound 0.1 µM) of the same compound?
A: > 10000 nM

Q: What about the IC50 (second compound 0.316 µM) of the same compound?
A: > 10000 nM

Q: What about the IC50 (second compound 1 µM) of the same compound?
A: > 10000 nM

Q: And the IC50 (second compound 3.16 µM)?
A: > 10000 nM

Q: What about the IC50 (second compound 10 µM) of the same compound?
A: > 10000 nM

Q: And the viability, T/C [1]?
A: 98.7%

Q: What about the viability, T/C [2] of the same compound?
A: 98.4%

Q: And the viability, T/C [3]?
A: 88.9%

Q: And the viability, T/C [4]?
A: 95.8%

Q: And the viability, T/C [5]?
A: 89%

Q: What about the viability, T/C [6] of the same compound?
A: 74.7%

Q: What about the viability, T/C [7] of the same compound?
A: 99.4%

Q: What about the viability, T/C [8] of the same compound?
A: 91%

Q: What about the viability, T/C [9] of the same compound?
A: 96.7%

Q: And the viability, T/C [10]?
A: 79.6%

Q: And the viability, T/C [11]?
A: 84.1%

Q: What about the viability, T/C [12] of the same compound?
A: 71.5%

Q: What about the viability, T/C [13] of the same compound?
A: 94.5%

Q: What about the viability, T/C [14] of the same compound?
A: 115%

Q: What about the viability, T/C [15] of the same compound?
A: 96.3%

Q: And the viability, T/C [16]?
A: 90.8%

Q: What about the viability, T/C [17] of the same compound?
A: 77%

Q: What about the viability, T/C [18] of the same compound?
A: 70.5%

Q: What about the viability, T/C [19] of the same compound?
A: 98.3%

Q: And the viability, T/C [20]?
A: 105%

Q: What about the viability, T/C [21] of the same compound?
A: 98%

Q: What about the viability, T/C [22] of the same compound?
A: 96.4%

Q: What about the viability, T/C [23] of the same compound?
A: 74.8%

Q: What about the viability, T/C [24] of the same compound?
A: 65.3%

Q: And the viability, T/C [25]?
A: 94.1%

Q: What about the viability, T/C [26] of the same compound?
A: 98.9%

Q: What about the viability, T/C [27] of the same compound?
A: 95.3%

Q: What about the viability, T/C [28] of the same compound?
A: 76%

Q: What about the viability, T/C [29] of the same compound?
A: 83.7%

Q: What about the viability, T/C [30] of the same compound?
A: 67.5%

Q: What about the viability, T/C [31] of the same compound?
A: 99.3%

Q: And the viability, T/C [32]?
A: 101%

Q: What about the viability, T/C [33] of the same compound?
A: 86.8%

Q: What about the viability, T/C [34] of the same compound?
A: 94.7%

Q: And the viability, T/C [35]?
A: 84.9%

Q: What about the viability, T/C [36] of the same compound?
A: 72%

Q: How did the IC50 (second compound 0.0316 µM) turn out when `Nc1ccn(C2OC(CO)C(O)C2(F)F)c(=O)n1` (centres undefined) + COC1C(OC(N)=O)C(O)C(Oc2ccc3c(O)c(NC(=O)c4ccc(O)c(CC=C(C)C)c4)c(=O)oc3c2C)OC1(C)C was run?
A: 488 nM

Q: What about the IC50 (second compound 0.1 µM) of the same compound?
A: 477 nM

Q: What about the IC50 (second compound 0.316 µM) of the same compound?
A: 422 nM

Q: And the IC50 (second compound 1 µM)?
A: 395 nM

Q: And the IC50 (second compound 3.16 µM)?
A: 450 nM

Q: What about the IC50 (second compound 10 µM) of the same compound?
A: 411 nM

Q: And the viability, T/C [1]?
A: 81.3%

Q: And the viability, T/C [2]?
A: 74.4%

Q: What about the viability, T/C [3] of the same compound?
A: 55.7%

Q: What about the viability, T/C [4] of the same compound?
A: 39.5%

Q: And the viability, T/C [5]?
A: 29.8%

Q: And the viability, T/C [6]?
A: 25.6%

Q: What about the viability, T/C [7] of the same compound?
A: 82.2%

Q: What about the viability, T/C [8] of the same compound?
A: 74.3%

Q: What about the viability, T/C [9] of the same compound?
A: 54.4%

Q: What about the viability, T/C [10] of the same compound?
A: 39.4%

Q: What about the viability, T/C [11] of the same compound?
A: 33%

Q: And the viability, T/C [12]?
A: 25.3%

Q: What about the viability, T/C [13] of the same compound?
A: 86.1%

Q: What about the viability, T/C [14] of the same compound?
A: 76.2%

Q: What about the viability, T/C [15] of the same compound?
A: 52.8%

Q: What about the viability, T/C [16] of the same compound?
A: 37.5%

Q: And the viability, T/C [17]?
A: 33%

Q: What about the viability, T/C [18] of the same compound?
A: 25.6%

Q: And the viability, T/C [19]?
A: 81.2%

Q: And the viability, T/C [20]?
A: 77.7%

Q: And the viability, T/C [21]?
A: 49.2%

Q: What about the viability, T/C [22] of the same compound?
A: 39.5%

Q: And the viability, T/C [23]?
A: 32.6%

Q: And the viability, T/C [24]?
A: 25%

Q: And the viability, T/C [25]?
A: 84.5%

Q: And the viability, T/C [26]?
A: 73.8%

Q: What about the viability, T/C [27] of the same compound?
A: 54.7%

Q: What about the viability, T/C [28] of the same compound?
A: 38.5%

Q: What about the viability, T/C [29] of the same compound?
A: 31.2%

Q: What about the viability, T/C [30] of the same compound?
A: 26.7%

Q: And the viability, T/C [31]?
A: 83.1%

Q: What about the viability, T/C [32] of the same compound?
A: 70%

Q: And the viability, T/C [33]?
A: 53%

Q: What about the viability, T/C [34] of the same compound?
A: 38.8%

Q: And the viability, T/C [35]?
A: 31.6%

Q: And the viability, T/C [36]?
A: 26%
